According to patent publication US10004786B2 (Zealand Pharma A/S, priority 2009, dated 2018):
Numbered stars: 1 amine (or outer) side, 2 acyl side, 3 side chain; on linkers, the order of the positions; unused ones are H or OH. Bridge positions count the residues as written; N and C are the ends. Square brackets hold non-standard residues; d marks the D form. Side chains are listed from the residue outwards. Peptide text beside a SMILES is read from it. * marks the point of attachment. γGlu = O=C(O)[C@H](CCC(=O)[*:2])N[*:1]; Palmitoyl = CCCCCCCCCCCCCCCC(=O)*; Aib = CC(C)(N)C(=O)O

Assays:
[1] = Pharmacokinetic screening in mouse plasma after subcutaneous administration; type: in vivo; conditions: sc, mice, 100 nmol/kg s.c., * = only two time points used for calculation
Procedure: Mice were dosed 100 nmol/kg subcutaneously (s.c.). The mice were sacrificed and the blood collected at the following time points; 0.5, 2, 4, 6, 16 and 24 h. Plasma samples were analyzed using protein precipitation, followed by solid phase extraction (SPE) and liquid chromatography mass spectrometry (LC-MS).
Pharmacokinetic profiles were determined for various acylated compounds.

[2] = Body weight gain in high fat fed C57BL/6J mice (10 days); type: in vivo; conditions: short term high fat-fed C57BL/6J mice; for body weight gain, high dose: 5 nmol/kg b.i.d. s.c.
Procedure: C57Bl/6J male mice, 6 weeks old, were acclimatized in their new environment for 4 weeks with free access to high fat diet (HFD) (D12492, Research Diet Inc., New Brunswick, USA) and water. The animals were injected s.c. with 100 μl vehicle for a period of three days to acclimatize the animals to handling and injections, prior to initiation of peptide treatment. […] Throughout the study, body weights were recorded daily and used to administer the body weight-corrected doses of peptide. All animals were sacrificed on the same day by cervical dislocation.
C57Bl/6J male mice on high fat diet (HFD) were treated (b.i.d.; s.c.) (0.5 and 5 nmol/kg) or vehicle. Body weights were recorded daily and used to administer the body weight-corrected doses of peptide throughout the study. Data are shown as mean±SEM in FIG. 7.

SMILES	half-life [1] [h]	body weight gain, high dose [2]	body weight gain, low dose ([2]; 0.5 nmol/kg b.i.d. s.c.)
CCCCCCCCCCCCCCCC(=O)N[C@@H](CCC(=O)NCCCC[C@H](NC(=O)[C@H](C)NC(=O)[C@H](C)NC(=O)[C@H](CCCCN)NC(=O)[C@H](CO)NC(=O)[C@H](CC(=O)O)NC(=O)[C@H](CC(C)C)NC(=O)[C@H](Cc1ccc(O)cc1)NC(=O)[C@H](CCCCN)NC(=O)[C@H](CO)NC(=O)[C@H](Cc1ccc(O)cc1)NC(=O)[C@H](CC(=O)O)NC(=O)[C@H](CO)NC(=O)[C@@H](NC(=O)[C@H](Cc1ccccc1)NC(=O)[C@@H](NC(=O)CNC(=O)[C@H](CCC(N)=O)NC(=O)[C@H](CO)NC(=O)[C@@H](N)Cc1c[nH]cn1)[C@@H](C)O)[C@@H](C)O)C(=O)N[C@@H](CC(=O)O)C(=O)N[C@@H](Cc1ccccc1)C(=O)N[C@H](C(=O)N[C@@H](CCC(=O)O)C(=O)N[C@@H](Cc1c[nH]c2ccccc12)C(=O)N[C@@H](CC(C)C)C(=O)N[C@@H](CC(C)C)C(=O)N[C@@H](CCCNC(=N)N)C(=O)N[C@@H](C)C(N)=O)C(C)C)C(=O)O [Compound 4] (H-HSQGTFTSDYSKYLDSKAAK([γGlu-Palmitoyl])DFVEWLLRA-NH2)	2	–	–
CCCCCCCCCCCCCCCC(=O)N[C@@H](CCC(=O)NCCCC[C@H](NC(=O)[C@H](CO)NC(=O)[C@H](CC(=O)O)NC(=O)[C@H](CC(C)C)NC(=O)[C@H](Cc1ccc(O)cc1)NC(=O)[C@H](CCCCN)NC(=O)[C@H](CO)NC(=O)[C@H](Cc1ccc(O)cc1)NC(=O)[C@H](CC(=O)O)NC(=O)[C@H](CO)NC(=O)[C@@H](NC(=O)[C@H](Cc1ccccc1)NC(=O)[C@@H](NC(=O)CNC(=O)[C@H](CCC(N)=O)NC(=O)C(C)(C)NC(=O)[C@@H](N)Cc1c[nH]cn1)[C@@H](C)O)[C@@H](C)O)C(=O)N[C@@H](C)C(=O)N[C@@H](C)C(=O)N[C@@H](Cc1c[nH]cn1)C(=O)N[C@@H](CC(=O)O)C(=O)N[C@@H](Cc1ccccc1)C(=O)N[C@H](C(=O)N[C@H]1CCC(=O)NCCCC[C@@H](C(=O)N[C@@H](C)C(N)=O)NC(=O)[C@H](CC(C)C)NC(=O)[C@H](CC(C)C)NC(=O)[C@H](Cc2c[nH]c3ccccc23)NC1=O)C(C)C)C(=O)O [Compound 13] (H-H[Aib]QGTFTSDYSKYLDSK([γGlu-Palmitoyl])AAHDFVEWLLKA-NH2; lactam 24-28)	6.4	–	–
CCCCCCCCCCCCCCCC(=O)N[C@@H](CCC(=O)NCCCC[C@H](NC(=O)[C@H](CC(C)C)NC(=O)[C@H](Cc1c[nH]c2ccccc12)NC(=O)[C@H](CCC(=O)O)NC(=O)[C@@H](NC(=O)[C@H](Cc1ccccc1)NC(=O)[C@H](CC(=O)O)NC(=O)[C@H](Cc1c[nH]cn1)NC(=O)[C@H](C)NC(=O)[C@H](C)NC(=O)[C@H](CCCCN)NC(=O)[C@H](CO)NC(=O)[C@H](CC(=O)O)NC(=O)[C@H](CC(C)C)NC(=O)[C@H](Cc1ccc(O)cc1)NC(=O)[C@H](CCCCN)NC(=O)[C@H](CO)NC(=O)[C@H](Cc1ccc(O)cc1)NC(=O)[C@H](CC(=O)O)NC(=O)[C@H](CO)NC(=O)[C@@H](NC(=O)[C@H](Cc1ccccc1)NC(=O)[C@@H](NC(=O)CNC(=O)[C@H](CCC(N)=O)NC(=O)[C@H](CO)NC(=O)[C@@H](N)Cc1c[nH]cn1)[C@@H](C)O)[C@@H](C)O)C(C)C)C(=O)N[C@@H](CCCNC(=N)N)C(=O)N[C@@H](C)C(N)=O)C(=O)O [Compound 5] (H-HSQGTFTSDYSKYLDSKAAHDFVEWLK([γGlu-Palmitoyl])RA-NH2)	5.3	–	–
CCCCCCCCCCCCCCCC(=O)N[C@@H](CCC(=O)NCCCC[C@H](NC(=O)[C@H](CC(=O)O)NC(=O)[C@H](CC(C)C)NC(=O)[C@H](Cc1ccc(O)cc1)NC(=O)[C@H](CCCCN)NC(=O)[C@H](CO)NC(=O)[C@H](Cc1ccc(O)cc1)NC(=O)[C@H](CC(=O)O)NC(=O)[C@H](CO)NC(=O)[C@@H](NC(=O)[C@H](Cc1ccccc1)NC(=O)[C@@H](NC(=O)CNC(=O)[C@H](CCC(N)=O)NC(=O)[C@H](CO)NC(=O)[C@@H](N)Cc1c[nH]cn1)[C@@H](C)O)[C@@H](C)O)C(=O)N[C@@H](CCCCN)C(=O)N[C@@H](C)C(=O)N[C@@H](C)C(=O)N[C@@H](Cc1c[nH]cn1)C(=O)N[C@@H](CC(=O)O)C(=O)N[C@@H](Cc1ccccc1)C(=O)N[C@H](C(=O)N[C@@H](CCC(=O)O)C(=O)N[C@@H](Cc1c[nH]c2ccccc12)C(=O)N[C@@H](CC(C)C)C(=O)N[C@@H](CC(C)C)C(=O)N[C@@H](CCCNC(=N)N)C(=O)N[C@@H](C)C(N)=O)C(C)C)C(=O)O [Compound 2] (H-HSQGTFTSDYSKYLDK([γGlu-Palmitoyl])KAAHDFVEWLLRA-NH2)	5.8	–	–
CCCCCCCCCCCCCCCC(=O)N[C@@H](CCC(=O)NCCCC[C@H](NC(=O)[C@H](CO)NC(=O)[C@H](CC(=O)O)NC(=O)[C@H](CC(C)C)NC(=O)[C@H](Cc1ccc(O)cc1)NC(=O)[C@H](CCCCN)NC(=O)[C@H](CO)NC(=O)[C@H](Cc1ccc(O)cc1)NC(=O)[C@H](CC(=O)O)NC(=O)[C@H](CO)NC(=O)[C@@H](NC(=O)[C@H](Cc1ccccc1)NC(=O)[C@@H](NC(=O)CNC(=O)[C@H](CCC(N)=O)NC(=O)[C@H](CO)NC(=O)[C@@H](N)Cc1c[nH]cn1)[C@@H](C)O)[C@@H](C)O)C(=O)N[C@@H](C)C(=O)N[C@@H](C)C(=O)N[C@@H](Cc1c[nH]cn1)C(=O)N[C@@H](CC(=O)O)C(=O)N[C@@H](Cc1ccccc1)C(=O)N[C@H](C(=O)N[C@@H](CCC(=O)O)C(=O)N[C@@H](Cc1c[nH]c2ccccc12)C(=O)N[C@@H](CC(C)C)C(=O)N[C@@H](CC(C)C)C(=O)N[C@@H](CCCNC(=N)N)C(=O)N[C@@H](C)C(N)=O)C(C)C)C(=O)O [Compound 3] (H-HSQGTFTSDYSKYLDSK([γGlu-Palmitoyl])AAHDFVEWLLRA-NH2)	–	significantly decreased body weight gain at the high dose	–
CCCCCCCCCCCCCCCC(=O)N[C@@H](CCC(=O)NCCCC[C@H](NC(=O)[C@H](CC(C)C)NC(=O)[C@H](CC(C)C)NC(=O)[C@H](Cc1c[nH]c2ccccc12)NC(=O)[C@H](CCC(=O)O)NC(=O)[C@@H](NC(=O)[C@H](Cc1ccccc1)NC(=O)[C@H](CC(=O)O)NC(=O)[C@H](Cc1c[nH]cn1)NC(=O)[C@H](C)NC(=O)[C@H](C)NC(=O)[C@H](CCCCN)NC(=O)[C@H](CO)NC(=O)[C@H](CC(=O)O)NC(=O)[C@H](CC(C)C)NC(=O)[C@H](Cc1ccc(O)cc1)NC(=O)[C@H](CCCCN)NC(=O)[C@H](CO)NC(=O)[C@H](Cc1ccc(O)cc1)NC(=O)[C@H](CC(=O)O)NC(=O)[C@H](CO)NC(=O)[C@@H](NC(=O)[C@H](Cc1ccccc1)NC(=O)[C@@H](NC(=O)CNC(=O)[C@H](CCC(N)=O)NC(=O)[C@H](CO)NC(=O)[C@@H](N)Cc1c[nH]cn1)[C@@H](C)O)[C@@H](C)O)C(C)C)C(=O)N[C@@H](C)C(N)=O)C(=O)O [Compound 6] (H-HSQGTFTSDYSKYLDSKAAHDFVEWLLK([γGlu-Palmitoyl])A-NH2)	4.8	only at the low dose	significantly decreased body weight gain
CCCCCCCCCCCCCCCC(=O)N[C@@H](CCC(=O)NCCCC[C@H](NC(=O)[C@H](CO)NC(=O)[C@H](CC(=O)O)NC(=O)[C@H](CC(C)C)NC(=O)[C@H](Cc1ccc(O)cc1)NC(=O)[C@H](CCCCN)NC(=O)[C@H](CO)NC(=O)[C@H](Cc1ccc(O)cc1)NC(=O)[C@H](CC(=O)O)NC(=O)[C@H](CO)NC(=O)[C@@H](NC(=O)[C@H](Cc1ccccc1)NC(=O)[C@@H](NC(=O)CNC(=O)[C@H](CCC(N)=O)NC(=O)C(C)(C)NC(=O)[C@@H](N)Cc1c[nH]cn1)[C@@H](C)O)[C@@H](C)O)C(=O)N[C@@H](C)C(=O)N[C@@H](C)C(=O)N[C@@H](CCCNC(=N)N)C(=O)N[C@@H](CC(=O)O)C(=O)N[C@@H](Cc1ccccc1)C(=O)N[C@H](C(=O)N[C@@H](C)C(=O)N[C@@H](Cc1c[nH]c2ccccc12)C(=O)N[C@@H](CC(C)C)C(=O)N[C@@H](CC(C)C)C(=O)N[C@@H](CCCNC(=N)N)C(=O)N[C@@H](C)C(N)=O)C(C)C)C(=O)O [Compound 9] (H-H[Aib]QGTFTSDYSKYLDSK([γGlu-Palmitoyl])AARDFVAWLLRA-NH2)	2.4	–	–
CCCCCCCCCCCCCCCC(=O)N[C@@H](CCC(=O)NCCCC[C@H](NC(=O)[C@H](CC(C)C)NC(=O)[C@H](CC(C)C)NC(=O)[C@H](Cc1c[nH]c2ccccc12)NC(=O)[C@H](CCC(=O)O)NC(=O)[C@@H](NC(=O)[C@H](Cc1ccccc1)NC(=O)[C@H](CC(=O)O)NC(=O)[C@H](Cc1c[nH]cn1)NC(=O)[C@H](C)NC(=O)[C@H](C)NC(=O)[C@H](CCCCN)NC(=O)[C@H](CO)NC(=O)[C@H](CC(=O)O)NC(=O)[C@H](CC(C)C)NC(=O)[C@H](Cc1ccc(O)cc1)NC(=O)[C@H](CCCCN)NC(=O)[C@H](CO)NC(=O)[C@H](Cc1ccc(O)cc1)NC(=O)[C@H](CC(=O)O)NC(=O)[C@H](CO)NC(=O)[C@@H](NC(=O)[C@H](Cc1ccccc1)NC(=O)[C@@H](NC(=O)CNC(=O)[C@H](CCC(N)=O)NC(=O)C(C)(C)NC(=O)[C@@H](N)Cc1c[nH]cn1)[C@@H](C)O)[C@@H](C)O)C(C)C)C(=O)N[C@@H](C)C(N)=O)C(=O)O [Compound 12] (H-H[Aib]QGTFTSDYSKYLDSKAAHDFVEWLLK([γGlu-Palmitoyl])A-NH2)	6	significantly decreased body weight gain at the high dose	–
